US9273101B2, “Functionalized biomaterials for tissue regeneration” (Nanomed3D S.R.L., priority 2011, dated 2016)
“Also recorded” adds a separate entry of the source.

What was measured:
[1] = tested on: murine NSCs in adhesion (Laminin coated dishes); assay: Phage biopanning (Ph.D.-7 library) against adhering NSCs; type: binding; conditions: for Frequency, internalized phage clones / Frequency, eluted phage clones: clones sequenced after three rounds of biopanning; for Frequency, internalized phage clones / %, internalized phage clones: internalized clones (IP); for %, internalized phage clones / %, eluted phage clones: consensus after three rounds of biopanning; for Frequency, eluted phage clones / %, eluted phage clones: cell membrane bound phages (MP)
Experimental: (§1) Two days prior cell seeding murine NSCs were mechanically dissociated in order to seed the maximum percentage of stem cells.
NSCs, three million per plate, were seeded over Laminin coated 10 cm Petri dishes (Falcon). After an overnight incubation in 10 ml of βFGF supplemented (10 ng/ml) neural basal media, cells were washed with pre-warmed Incubation Medium.
(§2) The Ph.D.-7 phage library was used (New England Biolabs), composed of phage clones with random 7-mer peptides fused to the N-terminal of PIII, a minor coat protein of M13 phage.
(§3) Before biopanning experiments against NSCs in adhesion, the phage library was incubated in a Laminin-coated tissue culture dish in order to remove phages with affinity to the Laminin coated plastic surface (negative selection). Mouse Laminin (10 mL at 25 μg/ml concentration) (Roche) was incubated overnight at 37° C. 10^12 cfu of phages were incubated for one hour at 37° C. in pre-warmed Incubation Medium (DMEM supplemented with 0.1% BSA) in Laminin-coated plastic surfaces (setting for adhering NSCs) or plain plastic surfaces (setting for NSCs in suspension). Then incubation Medium and a total volume of five washes of Washing Buffer (DPBS supplemented with 1% BSA and 0.05% Tween-20) were collected and eluted phages were amplified as described in the standard protocol of New England Biolabs.
(§4) 10^12 cfu of the negatively selected phage library were diluted in 10 ml Incubation Medium and pipetted onto the adhering NSCs or NSCs in suspension.
(§5) After 1 hour of incubation at 37° C. cells were washed five times with pre-warmed Washing Buffer, cell membrane bound phages (MP) and internalized clones (IP) were recovered from independent duplicates of differentiating progenies by eluting and/or lysing the cells respectively. The cell surface was stripped by a 5 minutes incubation of 5 ml of Glycine Buffer (0.2 M Glycine-HCl supplemented with 1 mg/ml BSA (pH 2.2)) at RT. Eluted Phages were neutralized with 5 ml of 1 M Tris-HCl buffer (pH 8) and amplified.
(§6) Cells were then lysed with 9 ml of Lysing Buffer (0.1% TEA in PBS) for 5 minutes at RT. Internalized phages were neutralized with 1 ml of 1 M Tris-HCl buffer.
(§7) Neutralized phages were titered by infection of Escherichia coli to monitor the selection. Internalized and eluted phages were amplified separately for another round of selection. Three rounds of positive selection were performed. At round number two and three the biopannings of internalized and eluted phages were performed in different cell cultures (but with identical culture conditions) by collecting the phages of interest (i.e. internalized phages from libraries of internalized phages) and discarding the leftovers.
(§8) After the third round of biopanning, phage clones were randomly picked out from the titer plates and sequenced. Thirty phage plaques per each set of phages were randomly picked for sequencing. A small number of clones wasn't successfully sequenced. […] In the case of panning against NSC in suspension the highest consensus was for KLPGWSG (SEQ ID NO: 10) (47.36 for MP), GETRAPL (SEQ ID NO: 12) (14.28% for IP and 10.52% for MP) and HAIYPRH (SEQ ID NO: 11) (28.57% for IP and 5.26% for MP).

murine NSCs [2] = assay: Imaging and cell proliferation assay (CellTiter 96 MTS) on assembled hydrogels, murine NSCs; type: cell-based; conditions: 7 DIV; for cell viability / proliferated cell population (MTS): scaffolds 10 mg/ml, vs control, P<0.005
Experimental: (§9) In vitro tests were performed as previously described (8), in order to assess whether the biomaterials (assembled hydrogels) obtained with the SAPs of the present invention influenced NSCs adhesion, survival and/or differentiation. SAPeptides (30 μl for each well at a concentration of 10 mg/ml) were assembled into 96 multiwells two hours before cell. Cells (at a concentration of 2×10^4 cells/cm^2) were seeded on the top-surface of each assembled scaffold. Initially, cells were cultured with basal medium supplemented with βFGF (10 ng/ml), added to […]. At 3 days in vitro (DIV), βFGF medium was replaced with Leukemia Inhibitory Factor (LIF, Chemicon) (20 ng/ml) and Brain Derived Neurotrophic Factor (BDNF, Peprotech) (20 ng/ml). Fresh medium was added every three days. For both viability and differentiation assays positive and negative controls consisted of Cultrex-BME® substrate (R&D systems) (1:100 dilution in basal medium) and untreated bottom well surfaces respectively. Cell viability was quantified via CellTiter 96® Aqueous Proliferation Assay (Promega) at 7 DIV as recommended in the Promega protocol. After calibrating the linear response between the cell number and absorbance values, proliferated cell populations were quantified (n=5) by using a Vmax microplate reader (Molecular Devices) at 490 nm wavelength. Values, reported as means±standard error of the mean, were blanked to their respective controls consisting of same substrates and cell culture media without cells.

murine NSCs [3] = assay: Immunofluorescence of differentiated NSC progeny on SAP scaffolds, murine; type: cell-based
Experimental: as §9
(§10) Immunofluorescence tests were performed for assaying the phenotypes of the differentiated human and murine NSC progenies. In the case of KLP and Ac-KLP just murine NSC have been used. Ac-KLP and KLP scaffolds were prepared at different concentrations in order to display three different stiffness values (viz. 100, 500 and 1000 Pa). This was done to assess the influence of scaffold concentration (and consequently its stiffness) over NSC differentiation. All the other peptides were tested at 1% v/w concentration instead. The following antibodies were used: rabbit polyclonal against GFAP (1:500, DakoCytomation) for astrocytes, mouse monoclonal against βIII-Tubulin (1:500, Covance) for neurons, mouse monoclonal against GalC (1:200, Chemicon) and O4 (1:200, Chemicon) for oligodendrocyes. Secondary Abs were Goat anti Mouse Alexa 488 (1:1000, Molecular Probes), Goat anti Mouse Cy3 (1:1000, Jackson Immunoresearch), Goat anti Rabbit Cy3 (1:1000, Jackson Immunoresearch). Cell nuclei were counterstained with DAPI (Molecular Probes). Quantitative analyses were performed by counting 100-300 cells for each of 9 randomly chosen fields over a total of 3 independent experiments. Phase contrast and fluorescence images of the adhering cells were acquired via Zeiss microscopes Axioplan 2 and ApoTome System at one week after seeding.

human NSCs [4] = assay: Imaging and cell proliferation assay (CellTiter 96 MTS) on assembled hydrogels, human NSCs; type: cell-based; conditions: 7 DIV; for cell viability / proliferated cell population (MTS): scaffolds 10 mg/ml, vs control, P<0.03
Experimental: as §9

human NSCs [5] = assay: Immunofluorescence of differentiated NSC progeny on SAP scaffolds, human; type: cell-based; conditions: 1% scaffold, compared to Cultrex positive control
Experimental: as §9
as §10, with “Cell nuclei were counterstained with DAPI (Molecular Probes).” left out

[6] = tested on: NSCs cultured in suspension; assay: Phage biopanning (Ph.D.-7 library) against NSCs in suspension; type: binding, murine; conditions: after three rounds of biopanning; for %, eluted phage clones / Frequency, eluted phage clones: membrane bound phages (MP); for %, internalized phage clones / Frequency, internalized phage clones: internalized clones (IP)
Experimental: as §1, §2, §3, §4, §5, §6, §7, §8

[7] = 1% scaffold, compared to Cultrex positive control

YRMPIWP (Prepared by synthesis) [heptapeptide domain found by phage biopanning against NSCs]
Frequency, internalized phage clones [1]: 1
%, internalized phage clones [1]: 3.5%

LQAIPRN (Prepared by synthesis) [heptapeptide domain found by phage biopanning against NSCs]
Frequency, internalized phage clones [1]: 1
%, internalized phage clones [1]: 3.5%

NH2-KLPGWSGGGGLDLKLDLKLDLK-CONH2 (H-KLPGWSGGGGLDLKLDLKLDLK-NH2)
cell morphology, adhesion and spreading on assembled hydrogels (murine NSCs [2]): fostered NSCs adhesion and spreading similarly to FAQ
differentiated neurons (βIIITubulin positive cells) in correspondence of stiffness reductions (murine NSCs [3]; scaffold stiffness 100, 500 and 1000 Pa): significant increments

TTTPTTP
Frequency, eluted phage clones [1]: 1
%, eluted phage clones [1]: 4.2%

FAQRVPP (Prepared by synthesis) [heptapeptide domain found by phage biopanning against NSCs]
Frequency, eluted phage clones [1]: 15
%, eluted phage clones [1]: 62.5%
%, internalized phage clones [1]: 53.5%

Ac-FAQRVPPGGGLDLKLDLKLDLK-CONH2 (Ac-FAQRVPPGGGLDLKLDLKLDLK-NH2)
cell morphology, adhesion and spreading on assembled hydrogels (murine NSCs [2]): spread and branched cells
cell viability / proliferated cell population (MTS) (murine NSCs [2]): cell population was bigger
cell morphology, adhesion and spreading on assembled hydrogels (human NSCs [4]): spread and branched cells
cell viability / proliferated cell population (MTS) (human NSCs [4]): cell population was bigger
number of neurons (βIII-Tubulin) obtained (murine NSCs [3]; [7]): significantly higher
number of oligodendrocytes (GalC/O4) obtained (murine NSCs [3]; [7]): significantly higher
number of neurons (βIII-Tubulin) obtained (human NSCs [5]): significantly higher
number of oligodendrocytes (GalC/O4) obtained (human NSCs [5]): significantly higher

ALTPWAF (Prepared by synthesis) [heptapeptide domain found by phage biopanning against NSCs]
%, eluted phage clones [6]: 10.52%
Frequency, eluted phage clones [6]: 2

QHLPRDH (Prepared by synthesis) [heptapeptide domain found by phage biopanning against NSCs]
Frequency, eluted phage clones [1]: 2
Frequency, internalized phage clones [1]: 4
%, eluted phage clones [1]: 8.3%
%, internalized phage clones [1]: 14.2%

SLPKLPP (Prepared by synthesis) [heptapeptide domain found by phage biopanning against NSCs]
Frequency, internalized phage clones [1]: 1
%, internalized phage clones [1]: 3.5%

KLPGWSG (Prepared by synthesis) [heptapeptide domain found by phage biopanning against NSCs]
%, eluted phage clones [6]: 47.36%
Frequency, eluted phage clones [6]: 9

GKPMPPM (Prepared by synthesis) [heptapeptide domain found by phage biopanning against NSCs]
%, eluted phage clones [6]: 10.52%
Frequency, eluted phage clones [6]: 2

SILPYPY (Prepared by synthesis) [heptapeptide domain found by phage biopanning against NSCs]
%, internalized phage clones [6]: 14.28%
Frequency, internalized phage clones [6]: 2

NH2-QHLPRDHGGGLDLKLDLKLDLK-CONH2 (H-QHLPRDHGGGLDLKLDLKLDLK-NH2)
cell viability / proliferated cell population (MTS) (murine NSCs [2]): significantly fostered cell viability; also recorded: significantly favored
cell viability / proliferated cell population (MTS) (human NSCs [4]): significantly fostered cell viability; also recorded: significantly favored

SSELVTH
Frequency, eluted phage clones [1]: 1
%, eluted phage clones [1]: 4.2%

TPPFAAW
Frequency, eluted phage clones [1]: 1
%, eluted phage clones [1]: 4.2%

GETRAPL (Prepared by synthesis) [heptapeptide domain found by phage biopanning against NSCs]
%, internalized phage clones [6]: 14.28%
Frequency, internalized phage clones [6]: 2
%, eluted phage clones [6]: 10.52%
Frequency, eluted phage clones [6]: 2

SASHWQI (Prepared by synthesis) [heptapeptide domain found by phage biopanning against NSCs]
Frequency, internalized phage clones [1]: 1
%, internalized phage clones [1]: 3.5%

HAIYPRH (Prepared by synthesis) [heptapeptide domain found by phage biopanning against NSCs]
%, internalized phage clones [6]: 28.57%
Frequency, internalized phage clones [6]: 4
%, eluted phage clones [6]: 5.26%
Frequency, eluted phage clones [6]: 1

YIIPMHD (Prepared by synthesis) [heptapeptide domain found by phage biopanning against NSCs]
Frequency, eluted phage clones [1]: 1
Frequency, internalized phage clones [1]: 1
%, eluted phage clones [1]: 4.2%
%, internalized phage clones [1]: 3.5%

TAVNSDA
Frequency, eluted phage clones [1]: 1
%, eluted phage clones [1]: 4.2%

TPLSSHS (Prepared by synthesis) [heptapeptide domain found by phage biopanning against NSCs]
Frequency, internalized phage clones [1]: 1
%, internalized phage clones [1]: 3.5%

LTTGSGS
Frequency, eluted phage clones [1]: 1
%, eluted phage clones [1]: 4.2%

SSLSVND (Prepared by synthesis) [heptapeptide domain found by phage biopanning against NSCs]
Frequency, eluted phage clones [1]: 1
Frequency, internalized phage clones [1]: 3
%, eluted phage clones [1]: 4.2%
%, internalized phage clones [1]: 10.7%
